Measured values taken from article PMC10854695, “Using Flavonoid Substitution Status to Predict Anticancer Effects in Human Melanoma Cancers: An In Vitro Study” (Cancers, 2024).

Key:
[1] = tested on: C32 melanoma cells; assay: Neutral red uptake (NRU) assay, C32
Method: The NRU (neutral red uptake) was conducted as previously described by Szoka and co-workers, with some modifications [22]. Briefly, melanoma cells and fibroblasts were seeded in microplates at the density of 1 × 10^4 cells per well and allowed to adhere for 24 h. […] After treatment, the culture medium was replaced with a neutral red solution (40 µg/mL). An additional 2 h of incubation was performed. The neutral red solution was then removed and the neutral red accumulated in the cells was dissolved in 50% EtOH with 1% of the glacial acetic acid. The absorbance was estimated at 540 nm and IC50 values were calculated using GraphPad Prism software (GraphPad Software, San Diego, CA, USA).

[2] = tested on: A375 melanoma cells; assay: MTT cell viability assay, A375; conditions: Homo sapiens;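 note: Read-out is formazan absorbance at 570 nm after 2 h with MTT, with compounds in at most 0.1% v/v DMSO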
[3] = in vitro; conditions: human
[4] = tested on: C32 melanoma cells; assay: MTT cell viability assay, C32; conditions: Homo sapiens, read-out: IC50, cytotoxic activity, MTT test;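 note: MTT added for 2 h, cells lysed in DMSO, absorbance read at 570 nm, compound vehicle kept at or below 0.1% DMSO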
[5] = tested on: A375 melanoma cells; assay: Neutral red uptake (NRU) assay, A375; conditions: read-out: IC50, cytotoxic activity, NRU assay
[6] = Neutral red uptake (NRU) assay, normal cells; conditions: human
[7] = tested on: A375 melanoma cells; assay: [3H]-thymidine incorporation (DNA biosynthesis), A375; assay type: cell-based, human; conditions: read-out: IC50, effect on DNA biosynthesis ([3H]-thymidine incorporation)
Method: (§1) The inhibition of DNA biosynthesis was evaluated using [^3H]-thymidine incorporation into the DNA of melanoma cells (C32, A375) and fibroblasts treated with the studied compounds [21]. The cells were briefly seeded in 24-well plates (1 × 10^5 cells per well) and allowed to adhere for 24 h. […] After incubation for 24, 48, and 72 h, the cells were rinsed three times with PBS. Then, cells were lysed in 1 mL of 0.1 M NaOH containing 1% SDS. The cell lysate was moved into scintillation vials containing scintillation liquid, and the radioactivity of the samples was measured using a liquid scintillation analyzer (Perkin-Elmer, Waltham, MA, USA).

[8] = tested on: A375 melanoma cells; assay: Apoptosis assay, annexin V/PI flow cytometry, A375; assay type: cell-based, human; conditions: A375, 50 µM, 48 h
Method: Firstly, cells were placed in 6-well plates at a density of 1 × 10^5 cells per well and allowed to adhere for 24 h. Then, cells were treated with 25 µM, 50 µM, and 100 μM of the selected flavonoids (1, 6, 15, 16, 17, 37) and incubated for 48 h. Floating and adherent cells were collected and assayed using the manufacturer’s protocol supported by the Dead Cell Apoptosis Kit for flow cytometry. Concisely, 100 μL of an annexin-binding buffer containing a 5 μL annexin V-FITC conjugate solution and 1 μg/mL PI (propidium iodide) was used to disperse the cells. After 15 min of incubation, an additional 400 μL of the mentioned buffer was added. The cells were analyzed with a DxFLEX flow cytometer (Beckman Coulter, Brea, CA, USA).

[9] = tested on: cleaved caspase-3 and cleaved caspase-7 in C32 cells; assay: Immunofluorescence of cleaved caspase-3/-7, C32; assay type: cell-based, human; conditions: C32, 48 h, immunofluorescent staining
Method: Firstly, to examine fluorescent signals, cells were placed in the bottom of 96-well black plates at 1 × 10^4 cells per well and permitted to adhere for 24 h. […] After incubating and removing the medium, cells were fixed in 4% paraformaldehyde for 15 min. Later, cells were rinsed three times with PBS and permeabilized with 0.1% Triton X-100 for 5 min at room temperature. The 10% heat-inactivated goat serum in the PBS was used to block non-specific binding. Subsequently, cells were treated with the following antibodies overnight: anti-cleaved caspase 3 and anti-cleaved caspase-7. […] Cell nuclei were stained with Hoechst 33342 and F-actin was stained with Phalloidin-Atto 488. Fluorescent signals were captured using a BD Pathway 855 confocal microscope (Becton Dickinson, Franklin Lakes, NJ, USA). The mean fluorescence intensity was calculated using ImageJ software (National Institutes of Health, Bethesda, Rockville, MD, USA).

[10] = tested on: human skin fibroblasts (CCD25Sk); assay: [3H]-thymidine incorporation (DNA biosynthesis), normal cells; assay type: cell-based; conditions: read-out: IC50, effect on DNA biosynthesis ([3H]-thymidine incorporation)
Method: as §1

[11] = tested on: C32 melanoma cells; assay: [3H]-thymidine incorporation (DNA biosynthesis), C32; assay type: cell-based, human; conditions: read-out: IC50, effect on DNA biosynthesis ([3H]-thymidine incorporation)
Method: as §1

[12] = MTT cell viability assay, normal cells; conditions: human;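 note: fibroblasts served as non-cancer comparison line for selectivity versus melanoma cells, MTT reduction read as absorbance at 570 nm after 2 h dye exposure, compounds in ≤0.1% DMSO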
[13] = tested on: caspases, PARP, phospho-RSK in C32 cells; assay: Western immunoblot of apoptosis mediators and RSK, C32; assay type: cell-based, human; conditions: C32, 48 h, Western blot
[14] = tested on: caspases, PARP, phospho-RSK in A375 cells; assay: Western immunoblot of apoptosis mediators and RSK, A375; assay type: cell-based, human; conditions: A375, 48 h, Western blot
Method: Floating cells were harvested by centrifugation of the conditioned media (300× g, 5 min). Cell pellet and adherent cells were lysed in a cell lysis buffer supplemented with inhibitors of proteases and phosphatases. The cell lysate was sonicated (2 × 10 s) on ice with an ultrasonic homogenizer (UP200S, Hielscher Ultrasonics GmbH, Teltow, Germany) and centrifuged for 10 min at 10,000× g. The supernatant was collected and stored in a freezer at −70 °C. Protein concentrations in the cell supernatants were determined using a Lowry assay. Obtained proteins were dissolved on SDS-PAGE gels (7.5%, 10%, or 12%) using the Mini-Protean Tetra system. The proteins were transferred to nitrocellulose membranes using the Mini Trans-Blot Cell wet blotting system. The 5% skim milk was used to block membranes. Then, membranes were probed for 24 h at 4 °C with the following antibodies: anti-phospho-RSK, anti-RSK, anti-PARP, anti-cleaved PARP, anti-caspase-8, anti-caspase-9, anti-caspase-7, anti-caspase-3, and anti-actin. Membranes were incubated with an ECL-HRP (enhanced chemiluminescence-horseradish peroxidase) substrate, and the signal was spotted using the BioSpectrum Imaging System and VisionWorks LS software 7.0 (Ultra-Violet Products, Ltd., San Gabriel, CA, USA). The intensity of the bands was quantified by densitometric analysis using UVIBand software, version 15.08d (Uvitec Ltd., Cambridge, UK).

[15] = tested on: human skin fibroblasts (CCD25Sk); assay: Neutral red uptake (NRU) assay, normal cells; conditions: read-out: IC50, cytotoxic activity, NRU assay; Normal cells (fibroblasts), 48 h
[16] = Homo sapiens, C32, 24 h, read-out: IC50, cytotoxic activity, NRU assay, C32, 24 h
[17] = Homo sapiens, C32, 48 h, read-out: IC50, cytotoxic activity, NRU assay, C32, 48 h
[18] = Homo sapiens, C32, 72 h, read-out: IC50, cytotoxic activity, NRU assay, C32, 72 h
[19] = A-375, 24 h, read-out: IC50, cytotoxic activity, MTT test, A375, 24 h
[20] = A-375, 48 h, read-out: IC50, cytotoxic activity, MTT test, A375, 48 h
[21] = A-375, 72 h, read-out: IC50, cytotoxic activity, MTT test, A375, 72 h
[22] = human skin fibroblasts (CCD25Sk)

## O=c1c(O)c(-c2cc(O)c(O)c(O)c2)oc2cc(O)cc(O)c12 [Compound 30, myricetin]
[1]; [16]
  IC50: > 200 µM
[1]; [17]
  IC50: > 200 µM
[1]; [18]
  IC50: > 200 µM
[2]; [19]
  IC50: > 200 µM
[2]; [20]
  IC50: > 200 µM
[2]; [21]
  IC50: 75.3 ± 4.8 µM
[3]
  IC50 at 24 h: > 200 µM
  IC50 at 48 h: > 200 µM
  IC50 at 72 h: > 200 µM
[4]; C32, 24 h
  IC50: > 200 µM
[4]; C32, 48 h
  IC50: > 200 µM
[4]; C32, 72 h
  IC50: > 200 µM
[5]; Homo sapiens, A-375, 24 h
  IC50: > 200 µM
[5]; Homo sapiens, A-375, 48 h
  IC50: > 200 µM
[5]; Homo sapiens, A-375, 72 h
  IC50: > 200 µM
[6]; [22]
  IC50 at 24 h: > 200 µM
  IC50 at 48 h: > 200 µM
  IC50 at 72 h: > 200 µM

## COc1ccc([C@@H]2CC(=O)c3c(O)cc(O)cc3O2)cc1O [Compound 33, hesperetin]
[1]; [16]
  IC50: 69 ± 5.1 µM
[1]; [17]
  IC50: 58.3 ± 5.6 µM
[1]; [18]
  IC50: 53.7 ± 4 µM
[2]; [19]
  IC50: 100 to 200 µM
[2]; [20]
  IC50: 100 to 200 µM
[2]; [21]
  IC50: 74.5 ± 6.4 µM
[3]
  IC50 at 24 h: > 200 µM
  IC50 at 48 h: > 200 µM
  IC50 at 72 h: > 200 µM
[4]; C32, 24 h
  IC50: > 200 µM
[4]; C32, 48 h
  IC50: 100 to 200 µM
[4]; C32, 72 h
  IC50: 76.5 ± 6.3 µM
[5]; Homo sapiens, A-375, 24 h
  IC50: 100 to 200 µM
[5]; Homo sapiens, A-375, 48 h
  IC50: 100 to 200 µM
[5]; Homo sapiens, A-375, 72 h
  IC50: 100 to 200 µM
[6]; [22]
  IC50 at 24 h: > 200 µM
  IC50 at 48 h: > 200 µM
  IC50 at 72 h: 100 to 200 µM

## O=c1c(-c2ccc(O)cc2)coc2cc(O)cc(O)c12 [Compound 37, genistein]
[7]; A375, 48 h
  IC50: 28 ± 0.8 µM
[7]; Homo sapiens, A-375, A375, 24 h
  IC50: 154 ± 10.8 µM
[7]; Homo sapiens, A-375, A375, 48 h
  IC50: 28.1 ± 0.87 µM
[7]; Homo sapiens, A-375, A375, 72 h
  IC50: 24.2 ± 1.5 µM
[8]
  level of early apoptotic cells: 38.1 ± 4.2%
  level of late apoptotic cells: 8.9 ± 1.9%
[1]; Homo sapiens, C32, 24 h, read-out: IC50, cytotoxic activity, NRU assay
  IC50: 100 to 200 µM
[1]; Homo sapiens, C32, 48 h, read-out: IC50, cytotoxic activity, NRU assay
  IC50: 31.5 ± 2.8 µM
[1]; Homo sapiens, C32, 72 h, read-out: IC50, cytotoxic activity, NRU assay
  IC50: 14.4 ± 2.1 µM
[2]; A-375, 24 h, read-out: IC50, cytotoxic activity, MTT test
  IC50: 93.1 ± 5.8 µM
[2]; A-375, 48 h, read-out: IC50, cytotoxic activity, MTT test
  IC50: 60.9 ± 4.2 µM
[9]
  caspase-3 expression: notably extended
[10]; Homo sapiens, Skin fibroblast, 24 h
  IC50: > 200 µM
[10]; Homo sapiens, Skin fibroblast, 48 h
  IC50: > 200 µM
[10]; Homo sapiens, Skin fibroblast, 72 h
  IC50: > 200 µM
[11]; C32, 48 h
  IC50: 18.5 ± 0.7 µM
[11]; Homo sapiens, C32, C32, 24 h
  IC50: 25.4 ± 1.3 µM
[11]; Homo sapiens, C32, C32, 48 h
  IC50: 18.5 ± 0.21 µM
[11]; Homo sapiens, C32, C32, 72 h
  IC50: 19.1 ± 0.3 µM
[12]
  IC50 at 24 h: > 200 µM
  IC50 at 48 h: 100 to 200 µM
  IC50 at 72 h: 56.8 ± 4.1 µM
[13]
  cleaved PARP and caspase-9: generated cleaved PARP and caspase-9
  phosphorylation of RSK: inhibited
[14]
  cleavage of initiator caspases, caspase-9 and caspase-8: cleavage of both initiator caspases
  levels of the caspases-3 and -7 zymogens: decreased levels
  phosphorylation of the RSK protein: impaired
[4]; C32, 24 h
  IC50: > 200 µM
[4]; C32, 48 h
  IC50: > 200 µM
[4]; C32, 72 h
  IC50: 51.1 ± 3.5 µM
[5]; Homo sapiens, A-375, 24 h
  IC50: 49.2 ± 3.2 µM
[5]; Homo sapiens, A-375, 48 h
  IC50: 32.3 ± 3.5 µM
[5]; Homo sapiens, A-375, 72 h
  IC50: 19.3 ± 2.2 µM
[6]
  IC50 at 24 h: > 200 µM
  IC50 at 48 h: 57.8 ± 4 µM
  IC50 at 72 h: 38.6 ± 3.7 µM

## N.N.[Cl][Pt][Cl] [cPt, cisplatin, reference compound]
[7]; A375, 24 h
  IC50: 3.8 ± 0.2 µM
[7]; A375, 48 h
  IC50: 3.9 ± 0.5 µM
[7]; A375, 72 h
  IC50: 3.4 ± 0.3 µM
[1]; read-out: IC50, cytotoxic activity, NRU assay, C32, 72 h
  IC50: 13.8 ± 1.5 µM
[10]; 24 h
  IC50: 7.1 ± 0.9 µM
[10]; 48 h
  IC50: 6.1 ± 0.5 µM
[10]; 72 h
  IC50: 6.1 ± 0.8 µM
[11]; C32, 24 h
  IC50: 6.8 ± 0.4 µM
[11]; C32, 48 h
  IC50: 5.7 ± 0.3 µM
[11]; C32, 72 h
  IC50: 4.4 ± 0.4 µM
[13]
  cleaved PARP and caspase-9: generated cleaved PARP and caspase-9
  phosphorylation of RSK: inhibited
[14]
  cleavage of initiator caspases, caspase-9 and caspase-8: cleavage of both initiator caspases
  levels of the caspases-3 and -7 zymogens: decreased levels
  phosphorylation of the RSK protein: impaired
[5]; A375, 72 h
  IC50: 9.9 ± 1.1 µM
[15]
  IC50: 47.5 ± 4.9 µM
